Data as given in patent US11154513B2, “Semifluorinated compounds” (NOVALIQ GMBH, priority 2015, dated 2021).
Like-named read-outs stand apart in the source and are kept apart here.

How the values were obtained:
[1] = Refractive index of the mixtures; assay type: physicochemical; settings: mixture with the 1-perfluoroalkylalkane; FIG. 2, FIG. 3
Description: In a particularly preferred embodiment, the refractive index of the liquid solution is in the range of from about 1.30 to about 1.35 at 20° C., as determined by refractometer.
The refractive index of the mixtures was also determined. For topically applied ophthalmic compositions, the refractive index of the composition should preferably be similar, or adapted to that of the eye and lens, for instance as close to that of physiological tear fluid as possible. If the refractive index of a composition is not similar, when applied to the surface of the eye, a patient may experience blurring or impaired vision. It is observed, that the amount of the compound CF3(CF2)5—CH(CH3)—(CH2)5—CH3 or has an effect on refractive index.

[2] = Evaporation time of 10 μL droplet on glass surface; assay type: physicochemical; settings: for effect of increased amount of the compound on evaporation time of the mixture: FIG. 1; for Evaporation time: 10 μL droplet, glass surface, room temperature; for Evaporation time / Relative Evaporation Time: F4H5 / CF3—(CF2)3—CH(CH3)—(CH2)2—CH3 mixtures; for Relative Evaporation Time: relative to Sample 1
Description: The evaporation time of mixtures of the semifluorinated alkane CF3(CF2)3(CH2)4CH3(F4H5) and CF3—(CF2)3—CH(CH3)—(CH2)2—CH3 was evaluated. A droplet of 10 μL volume of each mixture was placed on a glass surface at room temperature. Time until evaporation was recorded by video-monitoring.
The evaporation time of mixtures of the semifluorinated alkane CF3(CF2)5(CH2)7CH3(F6H8) and CF3(CF2)5—CH(CH3)—(CH2)5—CH3 was evaluated analogously.

[3] = Differential Scanning Calorimetry of mixtures
Description: Differential Scanning Calorimetry (DSC 1, Mettler Toledo, Greifensee, Switzerland) is used to characterize structure and phase behavior of mixtures of CF3(CF2)5—CH(CH3)—(CH2)5—CH3 and CF3(CF2)5(CH2)7CH3. DSC was employed to obtain data on transitions by temperature rising scans with heating rate of 1° C./min. Sealed standard aluminum crucibles (40 μl, Mettler Toledo) were used.

[4] = system: Rabbit corneas
Description: Anim., 2008 (36) p 25-32; and N. Schrage et al, Graefes Arch Clin Exp Ophthalmol 2012 (250), 1330-1340).
Method. Rabbit corneas were obtained and placed in an artificial anterior ocular chamber which was gently filled with serum-free minimal essential medium (Eagle's MEM) containing Earle's salts and HEPES buffer for nutrition. The medium was constantly replenished by a micropump to imitate the physiological condition of the eye. The culture chambers were held at 32° C. under normal air without supplementary CO2 and >95% relative humidity. Five corneas per test substance (n=5) were used except for the positive control with which two corneas (n=2) were tested.
After 12 h of stabilization in the culture chamber, the corneas were evaluated by microscopy and corneas with intact epithelium and without opacities were selected. Four small abrasions (2.3-4.3 mm^2) were applied to the surface of the selected corneas with a cornea drill. All defects were monitored by fluorescein sodium staining (0.17% aq. solution) and microscopy.
The test substances were administered one hour after induction of the corneal erosion and were applied six times daily onto the apex of the corneas (30-50 μL every four hours). A soft-tipped cannula, with continuous suction was placed on the lowest part of the corneoscleral region within the culturing chamber to remove any excess fluid. Experiments were terminated after 3 days of application. Biomicroscopic images of the corneas were taken daily to document the corneal healing process using a phase-contrast microscope integrated camera (KY-F1030U, JVC, (Bad Vilbel, Del.) mounted on a Z16 APO Microscope (Wetzlar, Del.)). All defects were monitored by fluorescein sodium stains (0.17% aq. solution) with yellow green fluorescence indicating the areas of epithelial defects. Erosion sizes were determined using a software tool of the microscope (DISKUS). At the end of the 3 days, the experiment was terminated and all corneas were fixed in 3.7% formaldehyde and stained with a hematoxylin-eosin dye for microscopic evaluation. To monitor the metabolic activity of the cornea, glucose and lactate concentrations were photometrically quantified in the outflow medium from the artificial anterior chambers.

[5] = DSC heating rate 1° C./min, mixture with CF3(CF2)5(CH2)7CH3

## CCCC(C)C(F)(F)C(F)(F)C(F)(F)C(F)(F)F (stereo not shown) [CF3—(CF2)3—CH(CH3)—(CH2)2—CH3, 2-Perfluorobutyl-pentane]
[1]
  effect of increased content on refractive index of the mixture: increasing refractive index value
[2]
  effect of increased amount of the compound on evaporation time of the mixture: increase the evaporation time

## CCCCCCC(C)C(F)(F)C(F)(F)C(F)(F)C(F)(F)C(F)(F)C(F)(F)F (stereo not shown) [CF3—(CF2)5—CH(CH3)—(CH2)5—CH3, 2-Perfluorohexyl-octane]
[1]
  effect of increased content on refractive index of the mixture: increasing refractive index value
[2]
  effect of increased amount of the compound on evaporation time of the mixture: significantly decreases the evaporation time
[3]; presence in a mixture of F6H8
  effect on melting enthalpy: decreased
  effect on melting temperature: significant reduction

## CCCCCC(F)(F)C(F)(F)C(F)(F)C(F)(F)F [Sample 1, CF3(CF2)3(CH2)4CH3]
[2]
  Evaporation time: 304 s
  Relative Evaporation Time: 1.00

## CCCC(C)C(F)(F)C(F)(F)C(F)(F)C(F)(F)F (stereo not shown) [Sample 3, CF3—(CF2)3—CH(CH3)—(CH2)2—CH3]
[2]
  Evaporation time: 322 s
  Relative Evaporation Time: 1.064

## CF3(CF2)5(CH2)7CH3 [0 wt % CF3—(CF2)5—CH(CH3)—(CH2)5—CH3]
[3]; [5]
  Low temperature transition Endset: −38.32 °C
  Low temperature transition Onset: −45.47 °C
  Low temperature transition Peak: −40.37 °C
  Low temperature transition ΔH: -0.69 J/g

## benzalkonium chloride [0.01% BAC]
[4]
  course of induced epithelial lesions: progressive increase of the induced epithelial lesions
[4]; Day 0
  Corneal Erosion Size, Mean: 11.57 mm^2
[4]; Day 1, applied six times daily 30-50 μL
  Corneal Erosion Size, Mean: 5.91 mm^2
[4]; Day 2, applied six times daily 30-50 μL
  Corneal Erosion Size, Mean: 8.74 mm^2
[4]; Day 3, applied six times daily 30-50 μL
  Corneal Erosion Size, Mean: 17.46 mm^2
